According to patent US20250345483A1, “WIDE RANGE SYNTHETIC PEPTIDE NUCLEIC ACIDS AND THEIR APPLICATIONS” (Carilion Clinic, priority 2024, published 2025):

Test system: gentamicin-resistant P. aeruginosa, Pa383-ΔrahU::GM
Assay: Biofilm biomass, aqueous or dried onto 96-well plates
Type: cell-based, Pseudomonas aeruginosa
Conditions: 32 h incubation
Experimental: An equimolar (10 μM per antisense-PNA) cocktail of the antisense-PNAs rsmA 0, amrZ 0, and rpoS 0 with 50% methanol (MeOH) (total volume: 60 μL) was dried onto a 96-well clear flat bottom polystyrene tissue culture-treated microplate in a Fisherbrand™ Isotemp™ Digital Dry Bath/Block Heater at 37° C. 60 μL of 100 μg/mL gentamicin was also dried onto wells. Gentamicin-resistant P. aeruginosa, Pa383-ΔrahU::GM was subcultured as described above (Rao, J. et al., 2011)
Biofilms were stained with 175 μL 0.1% crystal violet (CV), rinsed with sterile water until the water ran clear, solubilized in 100 μL of 33% glacial acetic acid (GAA), and absorbance was measured using a spectrophotometer at 590 nm (Wilson, C. et al., 2017).

Q: How did the average biofilm biomass (aq, vs untreated in M9+ media) turn out when gentamicin was run?
A: The average biofilm biomass was “no statistically significant difference”.

Q: And the average biofilm biomass (dried in MeOH, vs dried MeOH control wells)?
A: The average biofilm biomass was “no statistically significant difference”.
